Here are results for one compound from publication PMC9457600, “Synthesis, Leishmanicidal, Trypanocidal, Antiproliferative Assay and Apoptotic Induction of (2-Phenoxypyridin-3-yl)naphthalene-1(2H)-one Derivatives” (Molecules, 2022).

Structures are written as SMILES. Some results are limits rather than exact numbers.

Assay [1] relates to MRC-5. The experiment in a line: MTS assay on non-malignant MRC-5. It counts as cell-based. Particulars: MRC5; noncancerous human cell line. In general terms: Tetrazolium assays rely on reduction of a dye to a coloured formazan, in cell work by metabolically active cells.
Assay [2] relates to A549 cell line. In words: Annexin V-FITC/PI flow cytometry apoptosis assay A549. Conditions: 24 h. It counts as cell-based, human. Here is the method: Cell death was assessed after 24 h incubation with compounds 18 and 22. Apoptosis was analyzed by flow cytometry using annexin V-FITC and propidium iodide (PI). Early apoptosis was defined by annexin V-FITC expression and, necrosis by PI expression, late apoptosis by coexpression of annexin V/PI. Doxorubicin and quercetin were used as positive controls. The results of a typical flow cytometry analysis of both compounds are illustrated in Figure 2 and Figure 3. An increase in early apoptosis and late apoptosis was observed; necrosis was less predominant. The results are summarized in Tables S1 and S2 (Supplementary Materials). The expression of annexin V was different depending on the compound used. K562, A549 cell lines were treated as described by the manufacturer (Santa Cruz Biotechnology), washed, and resuspended in annexin V binding buffer (0.01 M HEPES, 0.14 M NaCl, and 2.5 mM CaCl2) with the subsequent incubation of annexinV-FITC and then PI. An Epics XL cytometer (Beckman Coulter, Indianapolis, IN, USA) was used for the analysis. Untreated cells were the negative controls, and doxorubicin (Dox) (1 μM), and quercetin (QC) (50 μM) were the positive controls. Early apoptosis refers to annexin V expression, late apoptosis, the coexpression of annexin V and PI, and necrosis the sole expression of PI. […] The experiments were performed as described before. To avoid the unwanted effects of DMSO, the concentrations of the compounds were never higher than 100 μM.
On the technique in general: A flow cytometer gives signals particle by particle.

The subject of assay [3] is A549. In words: MTS antiproliferative assay A549. In kind it is cell-based, human. Conditions: 72 h of incubation.
The subject of assay [4] is HCT-116. In words: MTS antiproliferative assay HCT116. It counts as cell-based. Particulars: Homo sapiens, 72 h of incubation.
For assay [5], the system named is VERO cells. In words: MTT cytotoxicity on VERO cells. Conditions: Chlorocebus sabaeus, 72 h. In kind it is cell-based, African green monkey. The procedure:
Vero cells were derived from the kidney of an African green monkey, cells were maintained in Dulbecco’s Modified Eagle’s Medium (DMEM), supplemented with 10% heat-inactivated FBS and penicillin-streptomycin solution 1% at 37 °C, 5% CO2 atmosphere and > 95% humidity. We evaluated through a colorimetric method the effect of compounds 8–23 on the promastigotes of L. brasiliensis. Briefly, 96-well plates were used, where 2 × 10^6 parasites/mL were seeded. A concentration of 50 μM was used for each compound and an incubation time of 96 h at 29 °C. 3-(4,5-dimethylthiazol-2-yl)-2,5-diphenyl tetrazolium bromide (MTT) 1 μg/mL was added and incubated in darkness for 4 h, acidic isopropanol (4N) was added and the plate was read at 570 nm in a spectrophotometer Synergy HT (Biotek). Miltefosine was used as a reference drug. The EC50 calculation of the selected compound was performed using growth curves. Direct counting was used to monitor the proliferation of parasites, three independent experiments were performed for each concentration of the compounds evaluated. The in vitro evaluations of compounds toxicity by MTT in VERO and BMDM cells follow a methodology described above with some modifications. The selectivity index was calculated with SI = CC50/EC50, where CC50 was the maximum concentration range of compounds 10, 21–23 used to evaluate cytotoxicity in VERO and BMDM cells. The trypanocidal activity of compounds 8–23 was evaluated on the viability of T. cruzi epimastigotes through a colorimetric method adapted with minor modifications. 2 × 10^6 parasites/mL were seeded in a 96-well plate, adding 50 μM of each derivative dissolved in DMSO (final concentration remained below 1%). The plate was incubated for 96 h at 29 °C. Then, 1 μg/mL of 3-(4,5-dimethylthiazol-2-yl)-2,5-diphenyl tetrazolium bromide (MTT) was added and incubated in darkness for 4 h. After this time, acidic isopropanol (4N) was added and the plate was read at 570 nm in a spectrophotometer Synergy HT (Biotek). Benznidazole was used as a reference drug. The in vitro evaluations of compounds toxicity by MTT in VERO and BMDM cells follow a methodology described above with some modifications. Cells were counted in suspension and seeded at 20 × 10^3 cells/well. The test was carried out in triplicate on 96-well microplates in different concentrations: 50 μM, 100 μM, 200 μM and 300 μM, untreated cells and reference drug (benznidazole) controls.

For assay [6], the system named is U2OS. The experiment in a line: MTS antiproliferative assay U2OS. It counts as cell-based. Particulars: Homo sapiens, 72 h of incubation.

A word on the IC50: it is the concentration that inhibits the measured activity by half. A high value points to weaker potency in that assay. A word on the EC50: it is the concentration needed to bring the measured effect to its halfway point. For `COc1ccc2c(c1)CC/C(=C\c1cccnc1Oc1ccc(Cl)cc1)C2=O` [Compound 22, (E)-2-{[2-(4-Chlorophenoxy)pyridin-3-yl]methylene}-3,4-dihydro-6-methoxynaphthalen-1(2H)-one], the IC50 in assay [1] was above 50 µM; in assay [3], 9.74 ± 1.28 µM; in assay [3] (Homo sapiens, A549, 72 h), 9.64 to 9.74 µM; in assay [4], 13 ± 3.61 µM; in assay [6] it was 8.1 ± 1.71 µM. The “AV+/IP+ (late apoptosis)” value is 23.30% in assay [2] (A549, 10 µM) and 78.30% in assay [2] (A549, 25 µM). Besides, the “AV+/IP- (early apoptosis)” value in assay [2] (A549, 10 µM) is on record as 13.80%; in assay [2] (A549, 25 µM), 9.36%. Moreover, the “AV-/IP+ (necrosis)” value in assay [2] (A549, 10 µM) is recorded as 8.44%; in assay [2] (A549, 25 µM), 9.32%. Further, the EC50 in assay [5] is above 100 µM.
